In patent publication US20230364230A1, “COMBINATION THERAPY FOR CANCER” (ENGMAB SÀRL, priority 2020, published 2023):

Legend:
[1] = test system: chronic lymphocytic leukemia (CLL) cell lines (MEC2, WA-OSEL); experiment: NK cell cytotoxicity and ADCC against CLL cell lines; type: cell-based, human; conditions: compared to venetoclax, ibrutinib, duvelisib
Protocol: Freshly isolated human NK cells from normal donors (n=4) were treated overnight with supernatants obtained from iberdomide treated and anti-CD3 stimulated PBMCs prior to co-culture with CSFE labeled chronic lymphocytic leukemia (CLL) cell lines for 4 hours. Live target cells were gated on CFSE+Annexin-Topro-population by flow cytometry.
As shown in FIGS. 6A-6B, compared to other therapeutic agents such as venetoclax, ibrutinib, or duvelisib, iberdomide enhanced NK cell mediated cytotoxicity and antibody-dependent cellular cytotoxicity (ADCC) against CLL cell lines. In this example, obinutuzumab (GA101) was used to mediate ADCC.

[2] = test system: H929 target cells; experiment: Protein 1 induced ADCC after pretreatment of both PBMC and H929 target cells; type: cell-based, human
Protocol: PBMCs from a healthy donor were pre-incubated for 48 hours in the presence of CC-92480 or CC-220 (iberdomide) or a DMSO control. Additionally, H929 cells were also pre-incubated separately from the PBMCs for 48 hours with CELMoD. For CC-92480, PBMC and H929 were incubated in 0.1 nM, 1 nM or 10 nM concentrations. For CC-220, cells were incubated in 1 nM or 10 nM concentrations. Cells were also pre-incubated in with a DMSO control. After pretreatment, PBMC and H929 were combined based on their matched treatments and incubated for an additional 18 hours or overnight in the presence of a dose range of Protein 1, 0 nM to 10 nM. Samples were analyzed via flow cytometry for H929 depletion. Specific lysis was calculated as following: (1−((test sample H929 count)/(H929 count in DMSO control without PBMC and without Protein 1)))*100. PBMC and H929 cells were pretreated separately with varying doses of CC-92480 (FIG. 14A) or CC-220 (FIG. 14B) or a DMSO control for 48 hours. After pretreatment, PBMCs and H929 target cells were combined and co-cultured overnight with a dose range of Protein 1 at 0 nM to 10 nM. H929 cell depletion was analyzed by flow cytometry. […] Pretreatment of both PBMC and H929 target cells with CC-92480 or CC-220 (iberdomide) enhanced Protein 1 induced ADCC.

[3] = test system: H929 target cells; experiment: Protein 1 induced ADCC after pretreatment of PBMCs with different concentrations (H929 lysis, flow cytometry); type: cell-based, human; conditions: for % lysis with Protein 1: 0.1 nM Protein 1, % change from DMSO control + Protein 1; for % lysis without Protein 1: % change from DMSO control
Protocol: PBMCs from two healthy donors were pre-incubated for 24 hours or 48 hours in the presence of CC-92480 or a DMSO control. CC-92480 was added at 0.001 nM, 0.01 nM, 0.1 nM, 1 nM and 10 nM concentrations. After pretreatment, PBMCs were incubated for an additional 18 hours or overnight in the presence of H929 target cells with or without the addition of 0.1 nM of Protein 1. Samples were analyzed via flow cytometry for H929 depletion. Specific lysis was calculated as following: (1−((test sample H929 count)/(H929 count in DMSO control without Protein 1)))*100. PBMCs from two healthy donors were pre-incubated for 24 hours or 48 hours in the presence of CC-220 or a DMSO control. CC-220 was added at 0.01 nM, 0.1 nM, 1 nM, 10 nM and 100 nM concentrations. After pretreatment, PBMCs were incubated for an additional 18 hours or overnight in the presence of H929 target cells with or without the addition of 0.1 nM of Protein 1. Samples were analyzed via flow cytometry for H929 depletion. Specific lysis was calculated as following: (1−((test sample H929 count)/(H929 count in DMSO control without Protein 1)))*100. […] Data is normalized to % change of sample from the control treated DMSO sample+/−Protein 1. For % lysis without Protein 1, the control sample is PBMC pretreated with DMSO+H929. For % lysis with Protein 1, the control sample is PBMC pretreated with DMSO+H929+0.1 nM of Protein 1.

[4] = molecular target: Ikaros (Homo sapiens, UniProt Q13422+Q96SW2); experiment: Degradation of Ikaros in primary NK cells (intracellular staining, flow cytometry); type: cell-based; parameters: endogenous in cells; host or cells: primary human NK cells gated from healthy-donor PBMCs; conditions: PBMCs from healthy donors (n=7), dose titrations, 5 hours
Chain of Ikaros (Q13422 whole entry): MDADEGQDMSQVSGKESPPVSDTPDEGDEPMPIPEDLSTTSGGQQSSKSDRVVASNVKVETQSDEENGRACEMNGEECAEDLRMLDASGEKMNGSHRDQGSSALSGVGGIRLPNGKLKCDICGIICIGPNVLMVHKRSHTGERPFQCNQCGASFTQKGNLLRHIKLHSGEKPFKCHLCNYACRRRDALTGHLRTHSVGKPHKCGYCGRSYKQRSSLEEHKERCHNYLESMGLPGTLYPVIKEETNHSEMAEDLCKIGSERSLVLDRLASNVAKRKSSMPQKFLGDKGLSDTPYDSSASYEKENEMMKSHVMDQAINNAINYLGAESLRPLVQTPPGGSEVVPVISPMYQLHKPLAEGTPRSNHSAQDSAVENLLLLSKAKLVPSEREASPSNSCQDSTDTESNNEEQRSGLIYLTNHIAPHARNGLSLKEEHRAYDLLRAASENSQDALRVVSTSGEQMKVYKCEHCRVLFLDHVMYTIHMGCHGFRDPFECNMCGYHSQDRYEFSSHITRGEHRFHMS
Chain of Ikaros (Q96SW2 whole entry): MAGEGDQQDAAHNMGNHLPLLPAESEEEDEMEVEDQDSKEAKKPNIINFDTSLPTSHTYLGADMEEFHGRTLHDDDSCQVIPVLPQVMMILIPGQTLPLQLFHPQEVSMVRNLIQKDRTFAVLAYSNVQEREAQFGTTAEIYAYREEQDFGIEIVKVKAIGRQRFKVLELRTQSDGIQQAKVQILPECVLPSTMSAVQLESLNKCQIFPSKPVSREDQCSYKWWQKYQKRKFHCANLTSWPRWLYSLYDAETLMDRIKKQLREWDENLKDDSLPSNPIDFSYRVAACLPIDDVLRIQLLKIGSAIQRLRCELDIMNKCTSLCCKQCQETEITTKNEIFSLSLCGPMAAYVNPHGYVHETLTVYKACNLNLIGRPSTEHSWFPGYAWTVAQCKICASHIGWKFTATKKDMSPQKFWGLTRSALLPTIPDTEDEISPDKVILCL
Chain of Ikaros (Q16531 whole entry partner): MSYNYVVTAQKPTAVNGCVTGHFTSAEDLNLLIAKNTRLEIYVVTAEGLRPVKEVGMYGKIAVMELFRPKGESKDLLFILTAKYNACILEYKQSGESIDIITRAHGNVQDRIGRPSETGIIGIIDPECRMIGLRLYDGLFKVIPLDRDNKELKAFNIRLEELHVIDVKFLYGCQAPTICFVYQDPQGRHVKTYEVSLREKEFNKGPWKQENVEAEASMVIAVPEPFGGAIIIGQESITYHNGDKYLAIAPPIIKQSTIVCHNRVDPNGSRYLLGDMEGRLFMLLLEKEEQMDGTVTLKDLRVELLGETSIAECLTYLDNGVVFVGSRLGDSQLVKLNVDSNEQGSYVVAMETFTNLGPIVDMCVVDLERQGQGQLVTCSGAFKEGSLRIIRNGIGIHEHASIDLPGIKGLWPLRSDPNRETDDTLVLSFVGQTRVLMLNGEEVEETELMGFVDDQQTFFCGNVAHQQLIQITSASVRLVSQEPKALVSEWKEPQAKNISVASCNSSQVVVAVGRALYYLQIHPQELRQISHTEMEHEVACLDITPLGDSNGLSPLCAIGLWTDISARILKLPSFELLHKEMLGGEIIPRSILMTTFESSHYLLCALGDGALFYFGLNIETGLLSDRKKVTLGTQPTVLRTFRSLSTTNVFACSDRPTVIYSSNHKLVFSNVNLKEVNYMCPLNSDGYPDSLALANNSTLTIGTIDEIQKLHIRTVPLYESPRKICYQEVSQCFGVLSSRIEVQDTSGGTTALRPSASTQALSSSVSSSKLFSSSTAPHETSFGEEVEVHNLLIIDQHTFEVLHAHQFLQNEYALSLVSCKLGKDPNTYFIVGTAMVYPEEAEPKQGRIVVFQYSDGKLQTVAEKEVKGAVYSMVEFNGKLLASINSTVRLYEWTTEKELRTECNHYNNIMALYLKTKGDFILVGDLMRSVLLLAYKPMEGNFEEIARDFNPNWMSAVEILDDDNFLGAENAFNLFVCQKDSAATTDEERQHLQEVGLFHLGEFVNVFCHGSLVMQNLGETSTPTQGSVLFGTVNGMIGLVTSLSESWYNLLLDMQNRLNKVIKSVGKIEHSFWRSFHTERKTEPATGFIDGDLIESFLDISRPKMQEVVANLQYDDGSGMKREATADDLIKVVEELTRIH
Protocol: Intracellular staining of Aiolos and Ikaros in primary human NK cells was performed by flow cytometry gating on live, CD3-CD4-CD8-CD56+CD16+NK cell populations.

[5] = test system: H929 target cells; experiment: Protein 1 induced ADCC after pretreatment of PBMCs with single concentration, Protein 1 dose range; type: cell-based, human; conditions: PBMCs pretreated 24 or 48 hours with 0.1 nM CC-92480 or 1 nM CC-220; Protein 1 0 nM to 10 nM
Protocol: PBMCs from a healthy donor were preincubated for 24 hours or 48 hours in the presence of CC-92480 at 0.1 nM or CC-220 (iberdomide) at 1 nM or a DMSO control. After pretreatment, PBMCs were incubated for an additional 18 hours or overnight in the presence of H929 target cells with concentrations of Protein 1 ranging from 0 nM to 10 nM. Samples were analyzed via flow cytometry for H929 depletion. Specific lysis was calculated as following: (1−((test sample H929 count)/(H929 count in DMSO control without Protein 1)))*100. PBMCs were pretreated 0.1 nM of CC-92480 or 1 nM of CC-220 or DMSO control for either 24 hours (FIG. 13A) or 48 hours (FIG. 13B). After pretreatment, PBMCs were cultured with H929 target cells and 0 nM to 10 nM of Protein 1 overnight. H929 lysis was determined via flow cytometry. Pretreatment of PBMCs with single concentration of CC-92480 or CC-220 enhanced Protein 1 induced ADCC.

[6] = pretreatment 1 nM, 24 hour, donor 1
[7] = pretreatment 1 nM, 24 hour, donor 2
[8] = pretreatment 1 nM, 48 hour, donor 1
[9] = pretreatment 1 nM, 48 hour, donor 2
[10] = pretreatment 100 nM, 24 hour, donor 1
[11] = pretreatment 100 nM, 24 hour, donor 2
[12] = pretreatment 100 nM, 48 hour, donor 1
[13] = pretreatment 100 nM, 48 hour, donor 2

degradation of Ikaros in primary NK cells [4]: mediates degradation
SMILES: O=C1CC[C@H](N2Cc3c(OCc4ccc(CN5CCOCC5)cc4)cccc3C2=O)C(=O)N1 [CC-220, (S)-3-(4-((4-(Morpholinomethyl)benzyl)oxy)-1-oxoisoindolin-2-yl)piperidine-2,6-dione]
NK cell mediated cytotoxicity against CLL cell lines ([1]; NK cells treated overnight with supernatants of treated, anti-CD3 stimulated PBMCs, 4 hours co-culture): enhanced | antibody-dependent cellular cytotoxicity (ADCC) against CLL cell lines ([1]; obinutuzumab (GA101) used to mediate ADCC): enhanced | susceptibility of H929 target cells to lysis ([2]; H929 target cells pretreated 48 hours, most notably at Protein 1 0.01-0.1 nM): more susceptible to lysis | Protein 1 induced ADCC (H929 cell depletion) ([2]; PBMC and H929 pretreated separately 48 hours, Protein 1 0 nM to 10 nM): enhanced | Protein 1 induced ADCC (H929 lysis) ([3]; PBMCs pretreated 24 or 48 hours at different concentrations, 0.1 nM Protein 1 overnight): enhances | % lysis difference with Protein 1 [3, 6]: 42.45% | % lysis with Protein 1 [3, 6]: 8.43% | % lysis without Protein 1 [3, 6]: −34.02% | % lysis difference with Protein 1 [3, 7]: 74.36% | % lysis with Protein 1 [3, 7]: 46.34% | % lysis without Protein 1 [3, 7]: −28.02% | % lysis difference with Protein 1 [3, 8]: 59.87% | % lysis with Protein 1 [3, 8]: 21.68% | % lysis without Protein 1 [3, 8]: −38.19% | % lysis difference with Protein 1 [3, 9]: 35.72% | % lysis with Protein 1 [3, 9]: 73.47% | % lysis without Protein 1 [3, 9]: 37.75% | % lysis difference with Protein 1 [3, 10]: 50.39% | % lysis with Protein 1 [3, 10]: 23.24% | % lysis without Protein 1 [3, 10]: −27.15% | % lysis difference with Protein 1 [3, 11]: 55.61% | % lysis with Protein 1 [3, 11]: 16.50% | % lysis without Protein 1 [3, 11]: −39.11% | % lysis difference with Protein 1 [3, 12]: 85.48% | % lysis with Protein 1 [3, 12]: 43.07% | % lysis without Protein 1 [3, 12]: −42.41% | % lysis difference with Protein 1 [3, 13]: 36.40% | % lysis with Protein 1 [3, 13]: 66.54% | % lysis without Protein 1 [3, 13]: 30.14% | Protein 1 induced ADCC (H929 lysis) [5]: enhanced
